Holding throughout (experiment): SelectScreen Kinase Profiling, single point inhibition and IC50 for off-target kinases
What all share (format): biochemical

Assay [1] has as its target off-target kinases (Homo sapiens, UniProt P42684). Particulars: ABL2 (Arg), ZLYTE, ATP Km app.
Assay [2] addresses T1, off-target kinases (Homo sapiens, UniProt Q9UEE5).
T1 sequence (Q9UEE5 1-414): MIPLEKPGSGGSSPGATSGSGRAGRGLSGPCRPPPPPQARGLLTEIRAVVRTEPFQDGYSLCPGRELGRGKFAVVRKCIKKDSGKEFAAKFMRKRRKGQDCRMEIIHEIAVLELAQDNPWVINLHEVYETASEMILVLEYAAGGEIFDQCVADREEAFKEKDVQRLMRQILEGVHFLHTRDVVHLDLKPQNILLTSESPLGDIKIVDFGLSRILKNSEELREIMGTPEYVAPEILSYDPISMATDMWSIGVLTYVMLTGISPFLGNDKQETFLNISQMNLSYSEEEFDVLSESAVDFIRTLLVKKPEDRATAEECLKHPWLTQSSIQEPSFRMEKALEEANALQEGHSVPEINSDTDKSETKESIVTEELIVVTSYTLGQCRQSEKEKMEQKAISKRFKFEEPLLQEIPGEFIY
Particulars: STK17A (DRAK1), LanthaScreen Binding.

In assay [3] the target is off-target kinases (Homo sapiens, UniProt Q96RR4). Particulars: CAMKK2 (CaMKK beta), LanthaScreen Binding.
The target of assay [4] is T2, off-target kinases (Homo sapiens, UniProt Q09013).
T2 sequence (Q09013 1-629): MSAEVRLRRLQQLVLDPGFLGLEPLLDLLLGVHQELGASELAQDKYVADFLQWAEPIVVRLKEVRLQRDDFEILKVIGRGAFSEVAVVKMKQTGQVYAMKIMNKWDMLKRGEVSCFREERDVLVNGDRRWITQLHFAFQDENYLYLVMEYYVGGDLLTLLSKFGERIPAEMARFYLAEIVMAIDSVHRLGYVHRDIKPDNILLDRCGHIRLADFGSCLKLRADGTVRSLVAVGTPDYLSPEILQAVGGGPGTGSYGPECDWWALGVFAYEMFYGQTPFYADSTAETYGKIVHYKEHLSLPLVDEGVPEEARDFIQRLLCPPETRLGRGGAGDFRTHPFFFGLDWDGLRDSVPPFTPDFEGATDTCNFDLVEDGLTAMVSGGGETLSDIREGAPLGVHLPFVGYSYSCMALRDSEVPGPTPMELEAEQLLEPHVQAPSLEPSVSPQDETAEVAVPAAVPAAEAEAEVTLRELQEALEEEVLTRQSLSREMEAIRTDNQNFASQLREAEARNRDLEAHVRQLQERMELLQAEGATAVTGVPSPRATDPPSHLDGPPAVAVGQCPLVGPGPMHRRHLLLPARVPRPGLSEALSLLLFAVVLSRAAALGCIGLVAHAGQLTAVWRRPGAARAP
The settings on record: DMPK, LanthaScreen Binding.

Where two headings read alike, the source gives them in different places.

Sequence of off-target kinases (Homo sapiens, UniProt Q96RR4) (Q96RR4 whole entry): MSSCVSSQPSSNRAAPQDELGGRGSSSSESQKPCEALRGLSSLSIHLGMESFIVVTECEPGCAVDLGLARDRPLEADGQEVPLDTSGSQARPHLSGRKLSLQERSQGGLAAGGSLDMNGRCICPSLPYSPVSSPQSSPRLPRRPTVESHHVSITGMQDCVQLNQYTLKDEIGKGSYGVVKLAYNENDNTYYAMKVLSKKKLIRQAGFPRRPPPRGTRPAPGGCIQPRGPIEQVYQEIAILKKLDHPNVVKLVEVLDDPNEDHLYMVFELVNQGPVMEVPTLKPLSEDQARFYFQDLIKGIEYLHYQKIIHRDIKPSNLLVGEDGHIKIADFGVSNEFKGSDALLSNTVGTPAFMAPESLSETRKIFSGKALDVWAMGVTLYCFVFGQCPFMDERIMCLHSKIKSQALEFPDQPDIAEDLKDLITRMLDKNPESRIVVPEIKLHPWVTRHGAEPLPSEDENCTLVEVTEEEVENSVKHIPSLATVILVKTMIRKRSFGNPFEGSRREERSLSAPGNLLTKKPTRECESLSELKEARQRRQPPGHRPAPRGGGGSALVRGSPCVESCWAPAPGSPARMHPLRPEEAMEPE
Sequence of off-target kinases (Homo sapiens, UniProt P42684) (P42684 whole entry): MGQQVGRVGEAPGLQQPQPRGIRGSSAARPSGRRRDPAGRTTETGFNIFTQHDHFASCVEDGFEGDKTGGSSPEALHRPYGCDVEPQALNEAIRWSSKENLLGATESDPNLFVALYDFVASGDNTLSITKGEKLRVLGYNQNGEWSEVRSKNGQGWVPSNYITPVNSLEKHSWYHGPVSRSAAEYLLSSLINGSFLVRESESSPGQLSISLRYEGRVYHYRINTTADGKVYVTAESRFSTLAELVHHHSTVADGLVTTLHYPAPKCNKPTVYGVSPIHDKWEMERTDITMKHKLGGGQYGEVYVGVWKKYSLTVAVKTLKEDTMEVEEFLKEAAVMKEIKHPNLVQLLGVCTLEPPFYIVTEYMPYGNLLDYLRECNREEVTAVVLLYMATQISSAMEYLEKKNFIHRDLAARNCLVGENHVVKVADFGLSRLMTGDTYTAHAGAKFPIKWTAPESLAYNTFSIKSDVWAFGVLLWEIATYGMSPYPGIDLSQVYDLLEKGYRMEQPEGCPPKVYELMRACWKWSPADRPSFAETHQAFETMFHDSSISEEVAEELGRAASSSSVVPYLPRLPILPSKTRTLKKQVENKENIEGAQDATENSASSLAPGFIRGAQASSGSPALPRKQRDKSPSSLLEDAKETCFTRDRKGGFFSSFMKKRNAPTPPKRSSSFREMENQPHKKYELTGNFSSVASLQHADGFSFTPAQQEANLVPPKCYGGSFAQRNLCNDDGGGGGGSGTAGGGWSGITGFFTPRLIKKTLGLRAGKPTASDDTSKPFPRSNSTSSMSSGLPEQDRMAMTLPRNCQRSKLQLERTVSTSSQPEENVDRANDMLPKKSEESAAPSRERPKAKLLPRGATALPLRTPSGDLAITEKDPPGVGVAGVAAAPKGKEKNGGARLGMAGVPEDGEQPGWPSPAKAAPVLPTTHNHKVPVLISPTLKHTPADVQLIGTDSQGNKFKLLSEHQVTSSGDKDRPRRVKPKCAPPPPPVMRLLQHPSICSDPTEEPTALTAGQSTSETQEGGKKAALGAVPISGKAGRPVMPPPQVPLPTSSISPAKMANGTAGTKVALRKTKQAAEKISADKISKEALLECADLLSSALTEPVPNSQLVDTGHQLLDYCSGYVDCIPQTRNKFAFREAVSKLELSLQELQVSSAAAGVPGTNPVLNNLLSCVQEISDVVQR

`N#Cc1cc(-c2ncnc(Nc3ccc(N4CCN(C5COC5)CC4)cc3)n2)ccc1OC1CCOCC1` [Compound 1, 5-(4-((4-(4-(oxetan-3-yl)piperazin-1-yl)phenyl)amino)-1,3,5-triazin-2-yl)-2-((tetrahydro-2H-pyran-4-yl)oxy)benzonitrile]: the inhibition (as a rule, the drop in the measured response relative to a control, in per cent) in assay [1] (read-out: % Inhibition 1) was found to be 40%; in assay [1] (read-out: % Inhibition 2), 39%; in assay [1] (read-out: % Inhibition Avg), 40%; in assay [2] (read-out: % Inhibition 1), 101%; in assay [2] (read-out: % Inhibition 2), 101%; in assay [2] (read-out: % Inhibition Avg), 101%. Besides, the inhibition stood at 7% in assay [3] (read-out: % Inhibition 1); 9% in assay [3] (read-out: % Inhibition 2); 8% in assay [3] (read-out: % Inhibition Avg); 76% in assay [4] (read-out: % Inhibition 1); 79% in assay [4] (read-out: % Inhibition 2); 78% in assay [4] (read-out: % Inhibition Avg).

Values taken from US11572590B2, “Methods for evaluating tumor cell spheroids using 3D microfluidic cell culture device” (Dana-Farber Cancer Institute, Inc., priority 2017, dated 2023).
